The text below walks through data of article PMC12931196, “Vm–MSI: a Vancomycin–Antimicrobial Peptide Conjugate Combating Resistant Bacteria and Broadening the Antimicrobial Spectrum” (Advanced Science, 2025).

Experiment [1] deals with B. cereus CMCC63301. Kind of experiment: MIC, 2 fold broth microdilution. The conditions noted are these: Bacillus cereus, MH broth, 37 °C, 18 h, OD600, read-out: MIC. It counts as cell-based. On the procedure:
(§1) The 2 fold broth microdilution method was performed following previously established protocols.^[ [65], [66] ^] A total of 29 strains of human pathogenic microorganisms (11 Gram‐positive and 18 Gram‐negative) were included in the assay. Standard strains were maintained in our laboratory, and clinical isolates were obtained from the Fourth Affiliated Hospital of Soochow University. […] Gradient dilutions of the drugs (vancomycin, AMPs, and vancomycin‐AMP conjugates) were prepared in 96‐well plates, with 50 µL of each drug solution added per well. For the vancomycin and AMP mixture, 25 µL of vancomycin was combined with 25 µL of AMP at the corresponding monomer gradient concentration, resulting in a total volume of 50 µL. […] Following incubation, bacterial growth was assessed by measuring absorbance at 600 nm. The MIC was defined as the lowest concentration at which no bacterial growth was detected.
Background: Dilution methods test growth across graded concentrations, often in twofold steps.

For experiment [2], the system named is P. aeruginosa 52097. Kind of experiment: MIC, 2 fold broth microdilution. It counts as cell-based. Particulars: Pseudomonas aeruginosa, MH broth, 37 °C, 18 h, OD600, read-out: MIC. The procedure: as §1
Experiment [3] deals with P. aeruginosa 60357. Kind of experiment: MIC, 2 fold broth microdilution. It counts as cell-based. The conditions noted are these: Pseudomonas aeruginosa, MH broth, 37 °C, 18 h, OD600, read-out: MIC. The procedure: as §1
Experiment [4] deals with P. aeruginosa CMCC10104. Kind of experiment: MIC, 2 fold broth microdilution. It counts as cell-based. The conditions noted are these: Pseudomonas aeruginosa, MH broth, 37 °C, 18 h, OD600, read-out: MIC. The procedure:
as §1

In experiment [5] the test system is S. flexneri ATCC12022. Kind of experiment: MIC, 2 fold broth microdilution. The conditions noted are these: Shigella flexneri, MH broth, 37 °C, 18 h, OD600, read-out: MIC. It counts as cell-based. The procedure: as §1
The test system of experiment [6] is S. flexneri CMCC51571. Kind of experiment: MIC, 2 fold broth microdilution. Particulars: Shigella flexneri, MH broth, 37 °C, 18 h, OD600, read-out: MIC. It counts as cell-based. The procedure: as §1
Experiment [7] deals with S. typhimurium CICC21483. Kind of experiment: MIC, 2 fold broth microdilution. Particulars: Salmonella enterica, MH broth, 37 °C, 18 h, OD600, read-out: MIC. It counts as cell-based. The procedure:
as §1

The subject of experiment [8] is V. parahemolyticus ATCC17802. Kind of experiment: MIC, 2 fold broth microdilution. Particulars: MH broth, 37 °C, 18 h, OD600, read-out: MIC. It counts as cell-based. On the procedure:
as §1

Experiment [9] deals with S. aureus CMCC26003. Kind of experiment: Antimicrobial resistance development assay. It counts as cell-based. Particulars: S. aureus CMCC26003 cultured at sub‐MIC.
Experiment [10] deals with multidrug‐resistant A. baumannii. Kind of experiment: Mouse lung infection model. It counts as in vivo, mice. Particulars: single i.p. 5 mg kg^−1 at 0.5 h post‐infection; lung CFU after one day. On the procedure:
The experimental methods employed in this study were based on previously published literature.^[ [64] ^] 6–8 weeks old female mice weighing 18–20 g were selected for the study, and colonization was performed by administering 50 µL of a multidrug‐resistant A. baumannii strain (at a concentration of 1 × 10^7 CFU/mL) via tracheal intubation into the lungs of the mice for a duration of 0.5 h. After this period, an intraperitoneal injection of the drug at a dosage of 5 mg kg^−1 was administered. PBS served as a negative control, while ciprofloxacin was used as a positive control. After 24 h, the mice were euthanized, and their lung tissues were excised, homogenized, and diluted 10000 fold for colony counting. The lung tissue homogenate was then centrifuged to obtain the supernatant, which was further diluted 5 fold. The expression levels of inflammatory factors IL‐6 and TNF‐α in the supernatant were measured using an ELISA assay (ThermoFisher, US).

Experiment [11] has as its system VRSA 52 and E. coli ATCC25922. Kind of experiment: ROS fluorescent probe assay (DCFH‐DA). It counts as cell-based. The conditions noted are these: DCFH‐DA 10 µM, 1 h. On the procedure:
In accordance with the experimental methods described in previous literature,^[ [42] ^] […] The DCFH‐DA probe (Sigma‐Aldrich, US) was then added at a final concentration of 10 µM, and the mixture was incubated for 30 min at 37 °C, protected from light. After incubation, the samples were centrifuged to remove residual DCFH‐DA. The stained bacterial solution was transferred to a 96‐well black plate and mixed with varying concentrations of drugs (vancomycin, MSI‐78, and Vm‐MSI). Polymyxin B was used as a positive control, while PBS buffer served as a negative control. The plates were incubated at 37 °C for 1 h, protected from light. Finally, fluorescence was recorded using a Tecan Infinite M1000 PRO microplate reader (Tecan, Switzerland) with an excitation wavelength of 488 nm and an emission wavelength of 525 nm.

Experiment [12] deals with VRSA 52 biofilms. The conditions noted are these: 8 µM, 4 h, SYTO9/PI CLSM.
The test system of experiment [13] is S. aureus CMCC26003. Kind of experiment: Bacterial killing kinetics. The conditions noted are these: 4 µM, sampled 0-180 min.
Experiment [14] relates to E. coli ATCC25922. Kind of experiment: Bacterial killing kinetics. Particulars: 4 µM, sampled 0-180 min.
The subject of experiment [15] is biofilm‐resident bacteria, including VRSA, E. coli, and MDR P. aeruginosa. Kind of experiment: Biofilm resident bacteria assay. Particulars: 1-8 µM, 24 h.
For experiment [16], the system named is MRSA ATCC43300. Kind of experiment: microbe, parasite or virus in culture. Particulars: Staphylococcus aureus, 18 h.
Experiment [17] concerns VRSA 11. Kind of experiment: microbe, parasite or virus in culture. Particulars: Staphylococcus aureus, 18 h.
Experiment [18] concerns VRSA 52. Kind of experiment: microbe, parasite or virus in culture. The conditions noted are these: Staphylococcus aureus, 18 h.
Experiment [19] has as its system E. coli ATCC25922. Kind of experiment: microbe, parasite or virus in culture. The conditions noted are these: Escherichia coli, ATCC25922, 18 h.
Experiment [20] relates to E. coli CMCC44102. Kind of experiment: microbe, parasite or virus in culture. The conditions noted are these: Escherichia coli, CMCC44102, 18 h.
Experiment [21] concerns A. baumannii ATCC19606. Kind of experiment: microbe, parasite or virus in culture. The conditions noted are these: Acinetobacter baumannii, ATCC19606, 18 h.
The subject of experiment [22] is MDR K. pneumoniae 3. Kind of experiment: microbe, parasite or virus in culture. The conditions noted are these: Klebsiella pneumoniae, 18 h.
In experiment [23] the test system is MDR P. aeruginosa 5. Kind of experiment: microbe, parasite or virus in culture. The conditions noted are these: Pseudomonas aeruginosa, 18 h.
The test system of experiment [24] is VRSA 52. Kind of experiment: Live/dead bacteria staining (PI/SYTO9, CLSM). The conditions noted are these: 4 µM, 1 h.

Converted amounts (≈) assume the structure as drawn. “And” between values parts separate entries of the source, which are not always exact repeats. Equal entries are not always repeated.

Consider `CN[C@H](CC(C)C)C(=O)N[C@H]1C(=O)N[C@@H](CC(N)=O)C(=O)N[C@H]2C(=O)N[C@H]3C(=O)N[C@H](C(=O)N[C@H](C(=O)O)c4cc(O)cc(O)c4-c4cc3ccc4O)[C@H](O)c3ccc(c(Cl)c3)Oc3cc2cc(c3O[C@@H]2O[C@H](CO)[C@@H](O)[C@H](O)[C@H]2O[C@H]2C[C@](C)(N)[C@H](O)[C@H](C)O2)Oc2ccc(cc2Cl)[C@H]1O` [Vm, vancomycin], for which the MIC is 50.5 µM (≈ 73.2 µg/mL) in experiment [1]; above 67.3 µM in [2]; above 67.3 µM in experiment [3]; above 67.3 µM in [4]; 50.5 µM (≈ 73.2 µg/mL) in experiment [5]; above 67.3 µM in experiment [6]. Besides, the MIC in experiment [7] is above 67.3 µM; in [8], 50.5 µM (≈ 73.2 µg/mL); in experiment [16] it was 3.16 µM and 4.69 µg/mL; in experiment [17], > 67.3 µM and > 100 µg/mL; in [18], > 67.3 µM and > 100 µg/mL; in experiment [19] it was > 67.3 µM and > 100 µg/mL. Also, the MIC is above 67.3 µM in experiment [20]; > 67.3 µM and > 100 µg/mL in experiment [21]; above 67.3 µM in experiment [22]; above 67.3 µM in experiment [23]. Moreover, the “change of MIC over 20 generations” value in experiment [9] is given as “four‐fold increase”. For the same compound, in experiment [10], the “lung‐colonizing bacteria eliminated” value is on record as “no antibacterial activity”. The “intracellular ROS production” value in [11] is reported as “did not induce ROS production”. In [12], the “killing in the surface layer of the biofilm (dead cells)” value came to 25%. In experiment [13], the “time to complete eradication of all viable bacteria” value is listed as above 180 min. Moreover, in [14], the “time to elimination of all bacteria” value was “no bactericidal activity”. Besides, in [15], the “biofilm‐resident bactericidal effect” value is reported as “no significant biofilm‐resident bactericidal effect”. Besides, in experiment [24], the bacterial mortality was determined as 2%.
